Two molecules from paper PMC10829512, “Transport of metformin metabolites by guanidinium exporters of the small multidrug resistance family” (The Journal of General Physiology, 2024) can be followed below.

One experiment addresses T1, Gdx-Clo (Clostridiales bacterium oral taxon 876, UniProt U2EQ00).
T1 sequence (U2EQ00 1-105): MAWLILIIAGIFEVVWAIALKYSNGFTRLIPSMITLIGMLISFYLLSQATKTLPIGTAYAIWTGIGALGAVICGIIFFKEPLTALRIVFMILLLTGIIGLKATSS
The experiment in a line: Pyranine stoichiometry assay in proteoliposomes. As to conditions: 10-fold substrate gradient, equilibrium at −60 mV. It counts as biochemical, Clostridales oral taxon 876. Here is the method: Unilamellar liposomes were formed by extrusion through a 400-nm membrane filter and the external pyranine was removed by passing liposomes through a Sephadex G-50 column spin column equilibrated in an internal buffer with substrate. The external assay buffers contained 25 mM HEPES, pH 7.53, 0.4 mM substrate, and varying KCl concentration (3–46 mM) to establish the membrane potential, with NaCl to bring the total salt concentration to 200 mM. Proteoliposomes were diluted 200-fold into the external buffer, and after ∼30 s to establish a baseline, valinomycin (final concentration 0.2 ng/ml) was added together with the substrate (final concentration 4 mM). Fluorescence spectra were monitored (λex = 455 nm; λem = 515 nm) for ∼300 s. The membrane potential was calculated using the Nernst potential for K^+: ψcalc=RT/Fln[K^+]out/[K^+]in. (1)
Fluorescence emission time courses were corrected for baseline drift measured prior to substrate and valinomycin addition. The stoichiometry was determined from the voltage at which electrochemical equilibrium occurred (no change in fluorescence over time) using the following equation: Erev=(n/m−n*RT/Fln[substrate^+]in/[substrate^+]out), (2) where n and m represent the stoichiometric coefficients of substrate and protons, respectively. […]

A further experiment has as its target Fluc-Bpe (Bordetella pertussis, UniProt Q7VYU0). The experiment in a line: SSM electrophysiology cross-reactivity control with individually reconstituted Fluc-Bpe. It counts as biochemical. Here is the method: SSM experiments were performed using SURFE^2R N1 instrument (Nanion Technologies). Sensors were prepared with a 1,2-diphytanoyl-sn-glycero-3-phosphocholine (DPhPC) lipid monolayer according to published protocols ([Bazzone et al., 2017]). Each sensor’s capacitance and conductance were verified before use (<80 nF capacitance, <50 nS conductance) using Nanion software protocols. Proteoliposome stock was diluted 1:25 in assay buffer (100 mM KCl, 100 mM KPO4, pH 7.5) prior to adsorption to the DPhPC monolayer. For substrate screening experiments, reference substrate samples (Gdm^+ for SMRGdx, and TPA^+ for SMRQac) were checked periodically to test for the stability of the sensor; if the current amplitude of the reference compound differed by >10% on one sensor, it indicated the desorption of liposomes, and the sensor was not used for further experiments. For every SSM electrophysiology experiment, we used the same general solution exchange protocol: after 2 s perfusion with a non-activating solution, we perfused substrate-containing buffer for 2 s and then returned to the equilibrium condition with a 4 s perfusion of non-activating buffer. […]
The adsorption of proteoliposomes to the sensor is subject to considerable variability from experiment to experiment, so the current measurements from different sensors cannot be quantitatively compared ([Barthmes et al., 2016]). […]

In the next experiment the target is Gdx-pPro (Citrobacter freundii, UniProt O69279). As to conditions: for Transport currents in substrate screen: 2 mM substrate.
Gdx-pPro, sequence (O69279 2-105): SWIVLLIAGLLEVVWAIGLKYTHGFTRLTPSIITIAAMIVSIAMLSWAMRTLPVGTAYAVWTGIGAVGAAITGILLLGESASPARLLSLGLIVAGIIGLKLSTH

Fluc-Bpe, sequence (Q7VYU0 whole entry): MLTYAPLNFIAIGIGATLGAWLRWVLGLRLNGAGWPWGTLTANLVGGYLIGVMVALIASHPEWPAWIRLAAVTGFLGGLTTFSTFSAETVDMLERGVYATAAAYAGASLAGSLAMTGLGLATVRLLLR

Regarding `N=C(N)N` [Gdm^+, guanidinium], the Proton coupling stoichiometry at Gdx-Clo is listed as 2 H^+: 1 solute. The “Response of Fluc-Bpe to substrate perfusion” value at Fluc-Bpe is “do not elicit a response”. For the same molecule, the “Transport currents in substrate screen” value on Gdx-pPro is “negative capacitive currents”. Besides, the “Maximal velocity for Gdm+ relative to guanylurea” value at Gdx-pPro (substrate at fivefold Km, normalized to Fluc-Bpe fluoride current) is on record as “approximately twofold higher”.

For `N=C(N)NC(N)=O` [Guanylurea, guanylurea], the Proton coupling stoichiometry on Gdx-Clo was 2 H^+: 1 solute. The “Response of Fluc-Bpe to substrate perfusion” value on Fluc-Bpe is on record as “do not elicit a response”. Further, the “Transport currents in substrate screen” value at Gdx-pPro is “negative capacitive currents”.
